Measured values published in ChEMBL document CHEMBL1932945, “One-pot regioselective synthesis of tetrahydroindazolones and evaluation of their antiproliferative and Src kinase inhibitory activities” (Bioorg Med Chem Lett, 2012).
Calls of active or inactive are those of the source. The calls are words filed in the database; no cut-off is given here.

Experiments:
SK-OV-3 = experiment: Antiproliferative activity against human SKOV3 cells overexpressing c-Src at 50 uM after 72 hrs by Cell titer assay; assay type: functional; details: for inhibition at 50 µM: SK-OV-3, 72 h
[1] = biological target: Proto-oncogene tyrosine-protein kinase Src (Homo sapiens, UniProt P12931); experiment: Inhibition of His6-tagged c-Src kinase domain using AEEEIYGEFEAKKKK as substrate pre-incubated for 10 mins before substrate addition measured after 30 mins by Transcreener ADP2 FI Assay
Chain of Proto-oncogene tyrosine-protein kinase Src (P12931 2-536 limits assumed): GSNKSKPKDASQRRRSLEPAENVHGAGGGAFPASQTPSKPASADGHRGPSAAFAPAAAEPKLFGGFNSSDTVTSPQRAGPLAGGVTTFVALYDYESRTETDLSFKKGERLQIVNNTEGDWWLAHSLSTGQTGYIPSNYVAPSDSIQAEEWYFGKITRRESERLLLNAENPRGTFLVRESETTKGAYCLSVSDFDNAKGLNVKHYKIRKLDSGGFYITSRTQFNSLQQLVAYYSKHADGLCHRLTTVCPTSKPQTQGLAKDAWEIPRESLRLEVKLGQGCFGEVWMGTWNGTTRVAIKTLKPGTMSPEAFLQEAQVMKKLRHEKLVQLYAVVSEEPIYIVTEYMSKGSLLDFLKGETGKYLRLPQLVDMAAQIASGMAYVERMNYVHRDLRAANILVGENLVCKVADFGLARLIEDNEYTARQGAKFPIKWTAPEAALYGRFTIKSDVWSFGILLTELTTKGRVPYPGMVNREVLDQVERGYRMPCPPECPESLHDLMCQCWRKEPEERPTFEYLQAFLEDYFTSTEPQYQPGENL

HT-29 = experiment: Antiproliferative activity against human HT-29 cells overexpressing c-Src at 50 uM after 72 hrs by Cell titer assay; assay type: functional; details: for inhibition at 50 µM: HT-29, 72 h

| Structure (SMILES) | IC50 [1] [µM] | inhibition (SK-OV-3) | inhibition (HT-29) | inhibition at 50 µM (HT-29) [%] | inhibition at 50 µM (SK-OV-3) [%] |
| --- | --- | --- | --- | --- | --- |
| Cc1ccc(-c2c3c(nn2-c2ccc[nH]2)CC(C)(C)CC3=O)cc1Cl | > 150 | Active | Active |  |  |
| CC1(C)CC(=O)c2c(nn(-c3ccc(Cl)cc3)c2-c2ccc(C(C)(C)C)cc2)C1 | > 150 | Active | Active |  |  |
| CC1(C)OC(=O)c2c(nn(-c3ccc(Cl)cc3)c2C2CCCCC2)O1 | > 150 | Active | Active |  |  |
| CC1(C)CC(=O)c2c(nn(-c3ccc([N+](=O)[O-])cc3)c2C2CCCCC2)C1 | > 150 | Active | Active |  |  |
| Cc1ccc(-c2c3c(nn2-c2ccncc2)CC(C)(C)CC3=O)cc1Cl | 74.3 | Active |  | 65 |  |
| COc1cccc2c1C(=O)c1c(O)c3c(c(O)c1C2=O)C[C@@](O)(C(=O)CO)C[C@@H]3O[C@H]1C[C@H](N)[C@H](O)[C@H](C)O1 |  | Active | Active |  |  |
| Cc1ccc(-n2nc3c(c2C2CCCCC2)C(=O)CCC3)cc1 | 57.7 | Active | Active |  |  |
| COc1ccc(-n2nc3c(c2-c2ccc(C(C)(C)C)cc2)C(=O)CC(C)(C)C3)cc1 | 35.1 | Active | Active |  |  |
| COc1ccc(-n2nc3c(c2-c2ccc(C(C)(C)C)cc2)C(=O)CC(C)(C)C3)cc1OC | > 150 | Active |  | 65 |  |
| CC1(C)OC(=O)c2c(nn(-c3ccc(Cl)cc3)c2-c2ccc(C(C)(C)C)cc2)O1 | > 150 | Active | Active |  |  |
| O=C1CCCc2nn(-c3cccc(Cl)c3)c(C3CCCCC3)c21 | 58.4 | Active | Active |  |  |
| Cc1ccc(-n2nc3c(c2-c2ccc(C(C)(C)C)cc2)C(=O)CC(C)(C)C3)cc1 | > 150 | Active | Active |  |  |
| CC1(C)CC(=O)c2c(nn(-c3cccs3)c2C2CCCCC2)C1 | 77.3 |  |  | 48 | 49 |

The next lines start with results.

| IC50 [1] [µM] | Structure (SMILES) | inhibition (SK-OV-3) | inhibition (HT-29) | inhibition at 50 µM (HT-29) [%] | inhibition at 50 µM (SK-OV-3) [%] |
| --- | --- | --- | --- | --- | --- |
| 132 | Cc1ccc(-c2c3c(nn2-c2ccc(Cl)cc2)CC(C)(C)CC3=O)cc1Cl | Active | Active |  |  |
| > 150 | CC1(C)CC(=O)c2c(nn(-c3cccs3)c2-c2ccc(Cl)c(Cl)c2)C1 | Active | Active |  |  |
| > 150 | COc1ccc(-n2nc3c(c2-c2ccc(Cl)c(Cl)c2)C(=O)CCC3)cc1 | Active | Active |  |  |
| 94.1 | COc1ccc(-n2nc3c(c2-c2ccc(Cl)c(Cl)c2)C(=O)CC(C)(C)C3)cc1 | Active | Active |  |  |
| 81 | O=C1CCCc2nn(-c3ccc(Cl)cc3)c(-c3ccc(Cl)c(Cl)c3)c21 | Active | Active |  |  |
| 65.8 | O=C1CCCc2nn(-c3ccccc3)c(-c3ccc(Cl)c(Cl)c3)c21 | Active |  | 65 |  |
| > 150 | COc1ccc(-n2nc3c(c2-c2ccc(Cl)c(Cl)c2)C(=O)CCC3)cc1O | Active | Active |  |  |
| > 150 | O=C1CCCc2nn(-c3ccccc3F)c(-c3ccc(Cl)c(Cl)c3)c21 | Active | Active |  |  |
| > 150 | CC1(C)CC(=O)c2c(nn(-c3ccc[nH]3)c2-c2ccc(Cl)c(Cl)c2)C1 | Active | Active |  |  |
| > 150 | O=C1CCCc2nn(-c3cccs3)c(-c3ccc(Cl)c(Cl)c3)c21 |  |  | 62 | 58 |
| > 150 | Cc1ccc(-n2nc3c(c2-c2ccc(Cl)c(Cl)c2)C(=O)CC(C)(C)C3)cc1 | Active | Active |  |  |
| > 150 | Cc1ccc(-n2nc3c(c2-c2ccc(Cl)c(Cl)c2)C(=O)CCC3)cc1 |  |  | 48 | 49 |
| > 150 | O=C1CCCc2nn(-c3ccc([N+](=O)[O-])cc3)c(-c3ccc(Cl)c(Cl)c3)c21 | Active | Active |  |  |
| > 150 | CC1(C)CC(=O)c2c(nn(-c3ccc([N+](=O)[O-])cc3)c2-c2ccc(Cl)c(Cl)c2)C1 | Active | Active |  |  |
| 66.6 | CC1(C)CC(=O)c2c(nn(-c3ccc(O)cc3)c2-c2ccc(Cl)c(Cl)c2)C1 | Active | Active |  |  |
| > 150 | O=C1CCCc2nn(-c3ccc(O)cc3)c(-c3ccc(Cl)c(Cl)c3)c21 | Active | Active |  |  |
| 86 | CC1(C)CC(=O)c2c(nn(-c3ccc(Cl)c(Cl)c3)c2-c2ccc(Cl)cc2)C1 | Active | Active |  |  |
| > 150 | COc1ccc(-n2nc3c(c2-c2ccc(Cl)c(Cl)c2)C(=O)CC(C)(C)C3)cc1O | Active | Active |  |  |
| 62.1 | CC1(C)CC(=O)c2c(nn(-c3ccccc3)c2-c2ccc(Cl)c(Cl)c2)C1 | Active | Active |  |  |
| 82.7 | COc1cccc(-n2nc3c(c2-c2ccc(C)c(Cl)c2)C(=O)CCC3)c1 | Active | Active |  |  |
